# Like-named read-outs stand apart in the source and are kept apart here.
# Target: T1, mu opiate receptor (MOR) (Rattus norvegicus, UniProt P33535)
# T1 construct: from tissue; host or cells: striatum (membrane preparation)
# Type: biochemical
# Method: To assess the mu opiate receptor (MOR) agonist activity of positive compounds from the FLNA screening, compounds were tested in a [^35S]GTPγS binding assay using striatal membranes. […] This assay measures a functional consequence of receptor occupancy at one of the earliest receptor-mediated events. The assay permits for traditional pharmacological parameters of potency, efficacy and antagonist affinity, with the advantage that agonist measures are not subjected to amplification or other modulation that may occur when analyzing parameters further downstream of the receptor.
# Thus, striatal tissue was homogenized in 10 volumes of ice cold 25 mM HEPES buffer, pH 7.4, which contained 1 mM EGTA, 100 mM sucrose, 50 μg/ml leupeptin, 0.04 mM PMSF, 2 μg/ml soybean trypsin inhibitor and 0.2% 2-mercaptoethanol. The homogenates were centrifuged at 800×g for 5 minutes and the supernatants were centrifuged at 49,000×g for 20 minutes.
# The resultant striatal membrane preparation (200 μg) was admixed and maintained (incubated) at 30° C. for 5 minutes in reaction buffer as above that additionally contained 1 mM MgCl2 and 0.5 nM [^35S]GTPγS (0.1 μCi/assay, PerkinElmer Life and Analytical Sciences) in a total volume of 250 μl and continued for 5 minutes in the absence or presence of 0.1-10 μM of an assayed compound of interest. The reaction was terminated by dilution with 750 μl of ice-cold reaction buffer that contained 20 mM MgCl2 and 1 mM EGTA and immediate centrifugation at 16,000×g for 5 minutes.
# Normal rabbit serum (1 μl) was added to 1 ml of lysate and incubated at 25° C. for 30 minutes. Nonspecific immune complexes were removed by incubation with 25 μl of protein A/G-conjugated agarose beads at 25° C. for 30 minutes followed by centrifugation at 5,000×g at 4° C. for 5 minutes. The supernatant was divided and separately incubated at 25° C. for 30 minutes with antibodies raised against Gαo proteins (1:1,000 dilutions).
# The immunocomplexes so formed were collected by incubation at 25° C. for 30 minutes with 40 μl of agarose-conjugated protein A/G beads and centrifugation at 5,000×g at 4° C. for 5 minutes. The pellet was washed and suspended in buffer containing 50 mM Tris-HCl, pH 8.0, and 1% NP-40. The radioactivity in the suspension was determined by liquid scintillation spectrometry.
# [1] = [35S]GTPγS binding to Gαo in striatal membranes, compound 0.1 μM
# [2] = [35S]GTPγS binding to Gαo in striatal membranes, compound 1 μM
# [3] = [35S]GTPγS binding to Gαo in striatal membranes, compound 1 μM plus 1 μM β-funaltrexamine (MOR antagonist)
# [4] = 0.1 μM compound, striatal membranes, Series C-2
# [5] = 1 μM compound + 1 μM β-FNA (selective MOR antagonist), Series C-2
# [6] = 1 μM compound, striatal membranes, Series C-2
# T1 sequence (P33535 whole entry): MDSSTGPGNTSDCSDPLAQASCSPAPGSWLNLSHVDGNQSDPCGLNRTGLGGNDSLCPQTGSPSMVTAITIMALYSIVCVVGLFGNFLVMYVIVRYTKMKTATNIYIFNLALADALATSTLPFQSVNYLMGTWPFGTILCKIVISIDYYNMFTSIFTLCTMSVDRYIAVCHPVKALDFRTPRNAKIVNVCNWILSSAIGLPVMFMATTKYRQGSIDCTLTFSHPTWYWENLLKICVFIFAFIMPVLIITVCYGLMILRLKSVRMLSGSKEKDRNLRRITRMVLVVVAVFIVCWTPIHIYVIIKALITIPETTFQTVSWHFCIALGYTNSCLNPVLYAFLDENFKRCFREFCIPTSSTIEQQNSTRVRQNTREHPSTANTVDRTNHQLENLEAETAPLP
Compound,% DAMGO (0.1 μM) [%],% DAMGO (1 μM) [%],% DAMGO + BFNA [%],Concentration of FLNA-Binding Compound as Agonist 0.1 μM [1] [%],Concentration of FLNA-Binding Compound as Agonist 1 μM [2] [%],Concentration of FLNA-Binding Compound as Agonist 1 μM + BFNA [3] [%],Concentration of FLNA-Binding Compound as Agonist 0.1 μM [%],Concentration of FLNA-Binding Compound as Agonist 1 μM [%],Concentration of FLNA-Binding Compound as Agonist 1 μM + BFNA [%],"[35S]GTPγS binding, FLNA-Binding Compound as Agonist at 0.1 μM [4] [%]","[35S]GTPγS binding, FLNA-Binding Compound as Agonist at 1 μM + BFNA [5] [%]","[35S]GTPγS binding, FLNA-Binding Compound as Agonist at 1 μM [6] [%]","[35S]GTPγS binding, FLNA-Binding Compound as Agonist at 0.1 μM [%]","[35S]GTPγS binding, FLNA-Binding Compound as Agonist at 1 μM [%]","[35S]GTPγS binding, FLNA-Binding Compound as Agonist at 1 μM + BFNA [%]"
CC1CN(CC(O)COc2cccc(N(C)C)c2)CC(C)O1 (stereo not drawn) [Compound A0042],75.2,84.5,121.1,147.5,233.1,89.5,–,–,–,–,–,–,–,–,–
COc1ccccc1CC(O)CC1c2c(cc3c(c2OC)OCO3)CCN1C (stereo not drawn) [Compound B0030],62.6,103.4,172.9,107.2,276.1,90.1,–,–,–,–,–,–,–,–,–
CC1CCC(C(C)C)C(OCC(O)CN2CC(C)OC(C)C2)C1 (stereo not drawn) [Compound A3333],88.9,101.0,136.7,170.7,328.3,65.9,–,–,–,–,–,–,–,–,–
NS(=O)(=O)c1ccc(S(=O)(=O)N2CCC3(CC2)OCCN3S(=O)(=O)c2ccc(S(N)(=O)=O)cc2)cc1 [Compound C0034],61.3,76.7,482.5,–,–,–,103.6,167.9,80.1,–,–,–,–,–,–
COc1ccc(C(=O)CC2c3c(cc4c(c3OC)OCO4)CC[N+]2(C)C)c(F)c1 (stereo not drawn) [Compound B0027],82.3,100.0,41.5,140.9,266.9,21.6,–,–,–,–,–,–,–,–,–
CC1CCC(C(C)C)C(OCC(O)CN2CCSC2)C1 (stereo not drawn) [Compound A0002],104.1,86.6,24.5,155.6,199.4,6.5,–,–,–,–,–,–,–,–,–
COc1ccc(CCC(O)CC2c3c(cc4c(c3OC)OCO4)CCN2C)cc1 (stereo not drawn) [Compound B0048],104.8,87.8,298.5,185.1,223.4,78.5,–,–,–,–,–,–,–,–,–
COc1ccc(NC(=O)N2CCC3(CC2)OCCN3C(=O)Nc2ccc(OC)cc2)cc1 [Compound C0151M],201.6,122.0,233.1,346.8,397.6,212.8,–,–,–,–,–,–,–,–,–
CC1CCN(CC(O)COC2CC(C)CCC2C(C)C)CC1 (stereo not drawn) [Compound A0006],113.8,82.9,68.7,170.0,190.9,18.2,–,–,–,–,–,–,–,–,–
COc1ccc(S(=O)(=O)N2CCOC23CCN(C)CC3)cc1 [Compound C0088M],160.5,161.7,513.3,–,–,–,–,–,–,276.3,177.1,355.3,–,–,–
CN(C)c1cccc(OCC(O)CN2CCc3ccccc3C2)c1 (stereo not drawn) [Compound A0050],77.0,68.6,109.6,151.0,189.3,81.0,–,–,–,–,–,–,–,–,–
COc1cccc(CCC(=O)CC2c3c(cc4c(c3OC)OCO4)CC[N+]2(C)C)c1 (stereo not drawn) [Compound B0034],71.6,88.1,80.2,122.5,235.2,41.8,–,–,–,–,–,–,–,–,–
COc1ccc(S(=O)(=O)N2CCOC23CCN(C(=O)OC(C)(C)C)CC3)cc1 [Compound C0043],103.8,110.9,501.8,–,–,–,–,–,–,175.4,83.3,242.6,–,–,–
COc1ccc(OCC(O)CN2CC(C)OC(C)C2)cc1 (stereo not drawn) [Compound A0048],119.1,109.7,226.3,233.7,302.9,167.2,–,–,–,–,–,–,–,–,–
CC1CCC(C(C)C)C(OCC(O)Cn2ccc3ccccc32)C1 (stereo not drawn) [Compound A0078],124.9,92.3,274.2,–,–,–,250.5,289.9,147.8,–,–,–,–,–,–
COc1ccc(OCC(O)Cn2ccc3ccccc32)cc1 (stereo not drawn) [Compound A0077],170.5,132.3,470.5,300.1,334.7,103.5,–,–,–,–,–,–,–,–,–
CC1CN(CC(O)COc2ccc(Br)c(F)c2)CC(C)O1 (stereo not drawn) [Compound A0041],108.4,102.8,68.5,212.7,283.6,50.6,–,–,–,–,–,–,–,–,–
COc1ccc(S(=O)(=O)N2CCC3(OCCN3S(=O)(=O)c3ccc(OC)cc3)C3CCCCC32)cc1 (stereo not drawn) [Compound C0144M],108.3,90.8,137.9,186.3,295.9,125.9,–,–,–,–,–,–,–,–,–
CC(=O)c1ccc(S(=O)(=O)N2CC(=O)NC23CCNCC3)cc1 [Compound C0086M],117.5,104.9,692.3,–,–,–,–,–,–,–,–,–,206.8,265.3,152.3
CC1CCC(C(C)C)C(OCC(O)CN2CCCC2)C1 (stereo not drawn) [Compound A0001],63.1,78.9,83.8,94.3,181.7,22.2,–,–,–,–,–,–,–,–,–
CCN1CCC2(CC1)OCCN2S(=O)(=O)c1ccc(OC)cc1 [Compound C0089M],136.3,134.4,237.4,–,–,–,–,–,–,234.5,81.9,295.3,–,–,–

# Source: patent US10760052B2, “Method of inhibiting tau phosphorylation” (priority 2012, dated 2020)
